We go through 15 compounds from patent US7385026B1, “Modified ghrelin polypeptides” (priority 1999, dated 2008).

The target in this assay is T1, rat GHS-receptor (GHR-R) (Rattus norvegicus, UniProt O08725).
T1 construct: A full-length cDNA for rat GHR-R was obtained by RT-PCR; expressed in transfected cells
In words: Ca-releasing activity (increase in intracellular calcium) in CHO-GHSR62 cells, FLIPR. Type of assay: cell-based. From the text: To assay an increase in the intracellular calcium ion concentration (Ca-releasing activity) occurring upon binding of a GH secretagogue (GHS) to GHS-receptor (GHR-R), a cell strain expressing rat GHR-R was created in the following manner. A full-length cDNA for rat GHR-R was obtained by RT-PCR (reverse transcriptase-polymerase chain reaction) where a cDNA derived from rat brain was used as template. From the nucleotide sequence of known rat GHR-R [K. K. Mckee, et al, Molecular Endocrinology 11, 415-423 (1997)], sense and antisense primers consisting of the following nucleotide sequences were synthesized.
The amplified cDNA was ligated to vector pcDNAIII (Invitrogen) to construct expression vector GHSR-pcDNAIII. CHO cells were transformed via the expression vector, and the transformed cells stably expressing GHR-R were selected in a medium containing 1 μg/ml G418. […] A change in the intracellular calcium ion concentration (Ca-releasing activity) was measured by an FLIPR system (Molecular Device). Before this measurement, 4×10^4 CHO-GHSR62 cells were put to a 96-well microplate with black wall (Corning Co., Ltd) and cultured for 12 to 15 hours. Then, the cells were incubated with 4 μM fluorescent Fluo4 (Molecular Probe Co., Ltd) for 1 hour and washed four times with Hank's BSS (Hank's Balanced Salt Solution) containing 20 mM Hepes ([N-2-hydroxyethyl]-piperazine-N-[2-ethanesulfonic acid]) and 2.5 mM probenecid, and the Ca-releasing activity was assayed by adding a sample and measuring a change in the fluorescence.
Peptide fragments obtained by partially digested the rat- and human-derived ghrelins by various proteases, or chemically synthesized peptides, were examined for their Ca releasing activity in order to determine a core amino acid sequence and the optimum chain length of a modifying fatty acid necessary for Ca-releasing activity.
The Ca-increasing activities of the ghrelin derivative peptide-type compounds synthesized in Example 10 and the natural ghrelin peptide were measured in the same manner as in Example 1.
In this examination, the intracellular Ca-releasing activity in CHO cells expressing rat GSH receptor was used as the indicator.

Setting [1] is: CHO-GHSR62 cells (CHO cells expressing rat GHS receptor), FLIPR, read-out: Ca-releasing activity EC50.
The mark [2] stands for this setting: Table 3, Example 9: protease fragments or synthetic peptides, CHO-GHSR62 cells, read-out: Ca-releasing activity (EC50).

pEC50: −log10 of the molar value. Read-outs that look alike come from different tables or passages of the source. Peptide text beside a SMILES is read from it. * marks the point of attachment. Octanoyl = CCCCCCCC(=O)*

T1 sequence (O08725 whole entry): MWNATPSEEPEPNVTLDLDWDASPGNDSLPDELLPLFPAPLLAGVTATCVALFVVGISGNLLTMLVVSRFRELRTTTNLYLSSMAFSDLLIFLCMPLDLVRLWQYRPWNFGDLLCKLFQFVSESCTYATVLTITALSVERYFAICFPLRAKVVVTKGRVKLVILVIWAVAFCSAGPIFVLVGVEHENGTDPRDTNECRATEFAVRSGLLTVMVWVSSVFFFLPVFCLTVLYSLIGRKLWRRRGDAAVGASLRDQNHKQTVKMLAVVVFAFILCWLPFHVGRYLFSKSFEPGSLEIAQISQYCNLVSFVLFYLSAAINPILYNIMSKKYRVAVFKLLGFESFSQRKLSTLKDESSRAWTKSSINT

As for `CCCCCCCC(=O)NCC(=O)N[C@@H](CO)C(=O)N[C@@H](CO)C(=O)N[C@@H](Cc1ccccc1)C(=O)N[C@@H](CC(C)C)C(=O)N[C@@H](CO)C(=O)N1CCC[C@H]1C(=O)N[C@@H](CCC(=O)O)C(=O)N[C@@H](Cc1c[nH]cn1)C(N)=O` [Compound 6, [N-Octanoyl, Ser^3]-Ghrelin (1-9)-amide] (Octanoyl-GSSFLSPEH-NH2), under setting [1], the pEC50 was below 5.00. Same read-out and setting: then `CCCCCCCC(=O)OC[C@H](NC(=O)[C@H](CO)NC(=O)CN)C(=O)N[C@@H](Cc1ccccc1)C(=O)N[C@@H](CC(C)C)C(=O)N[C@@H](CO)C(=O)N[C@@H](CCCCN)C(N)=O` [Compound 75, [Lys^7]-Ghrelin (1-7)-amide] (H-GSS(Octanoyl)FLSK-NH2), with 7.96. As for `CCCCCCCC(=O)OC[C@H](NC(=O)[C@H](CO)NC(=O)CN)C(=O)N[C@@H](Cc1ccccc1)C(=O)N[C@@H](CC(C)C)C(=O)N[C@@H](CO)C(=O)N1CCC[C@H]1C(=O)N[C@@H](CCC(=O)O)C(=O)N[C@@H](Cc1c[nH]cn1)C(=O)N[C@@H](CCC(N)=O)C(=O)N[C@@H](CCCCN)C(=O)O` [Compound 24, rGbrelin (1-11)], the negative-log EC50 (pEC50) under setting [2] was 7.82. Take `CCCCCCCCCCCC(=O)OC[C@H](NC(=O)[C@H](CO)NC(=O)CN)C(=O)N[C@@H](Cc1ccccc1)C(=O)N[C@@H](CC(C)C)C(=O)N[C@@H](CO)C(=O)N1CCC[C@H]1C(=O)N[C@@H](CCC(=O)O)C(=O)N[C@@H](Cc1c[nH]cn1)C(=O)N[C@@H](CCC(N)=O)C(=O)N[C@@H](CCCCN)C(=O)N[C@@H](C)C(=O)N[C@@H](CCC(N)=O)C(=O)N[C@@H](CCC(N)=O)C(=O)N[C@@H](CCCNC(=N)N)C(=O)N[C@@H](CCCCN)C(=O)N[C@@H](CCC(=O)O)C(=O)N[C@@H](CO)C(=O)N[C@@H](CCCCN)C(=O)N[C@@H](CCCCN)C(=O)N1CCC[C@H]1C(=O)N1CCC[C@H]1C(=O)N[C@@H](C)C(=O)N[C@@H](CCCCN)C(=O)N[C@@H](CC(C)C)C(=O)N[C@@H](CCC(N)=O)C(=O)N1CCC[C@H]1C(=O)N[C@@H](CCCNC(=N)N)C(=O)O` [Compound 13, [Ser^3(Lauroyl)]-rGhrelin]: the pEC50 under setting [1] is 8.62. Take `CCCCCCCC(=O)OC[C@H](NC(=O)[C@H](CO)NC(=O)CN)C(=O)N[C@@H](Cc1ccccc1)C(N)=O` [Compound 33-2, Ghrelin (1-4)-amide] (H-GSS(Octanoyl)F-NH2): the “Ca-releasing activity of ghrelin (1-4) after amidation relative to before amidation” value is “about 3 times”. For the same compound, under setting [1], the pEC50 was 6.80. Consider `CCCCCCCC(=O)OC[C@H](NC(=O)CN)C(=O)N[C@@H](CO)C(=O)N[C@@H](Cc1ccccc1)C(=O)N[C@@H](CC(C)C)C(=O)N[C@@H](CO)C(=O)N1CCC[C@H]1C(=O)N[C@@H](CCC(=O)O)C(=O)N[C@@H](Cc1c[nH]cn1)C(N)=O` [Compound 4, [Ser^2(Octanoyl), Ser^3]-Ghrelin (1-9)-amide] (H-GS(Octanoyl)SFLSPEH-NH2), for which the “Ca-releasing activity relative to the 3rd-serine octanoyl parent” value (octanoyl moved from 3rd to 2nd serine) is listed as “about 1/200”. As to `CCCC(=O)OC[C@H](NC(=O)[C@H](CO)NC(=O)CN)C(=O)N[C@@H](Cc1ccccc1)C(=O)N[C@@H](CC(C)C)C(=O)N[C@@H](CO)C(=O)N1CCC[C@H]1C(=O)N[C@@H](CCC(=O)O)C(=O)N[C@@H](Cc1c[nH]cn1)C(=O)N[C@@H](CCC(N)=O)C(=O)N[C@@H](CCCCN)C(=O)N[C@@H](C)C(=O)N[C@@H](CCC(N)=O)C(=O)N[C@@H](CCC(N)=O)C(=O)N[C@@H](CCCNC(=N)N)C(=O)N[C@@H](CCCCN)C(=O)N[C@@H](CCC(=O)O)C(=O)N[C@@H](CO)C(=O)N[C@@H](CCCCN)C(=O)N[C@@H](CCCCN)C(=O)N1CCC[C@H]1C(=O)N1CCC[C@H]1C(=O)N[C@@H](C)C(=O)N[C@@H](CCCCN)C(=O)N[C@@H](CC(C)C)C(=O)N[C@@H](CCC(N)=O)C(=O)N1CCC[C@H]1C(=O)N[C@@H](CCCNC(=N)N)C(=O)O` [Compound 10, [Ser^3(Butyryl)]-rGhrelin], the pEC50 under setting [1] is 6.55.

For the compound `CCCCCCCOC(=O)C[C@H](NC(=O)[C@H](CO)NC(=O)CN)C(=O)N[C@@H](Cc1ccccc1)C(=O)N[C@@H](CC(C)C)C(=O)N[C@@H](CO)C(=O)N1CCC[C@H]1C(=O)N[C@@H](CCC(=O)O)C(=O)N[C@@H](Cc1c[nH]cn1)C(=O)N[C@@H](CCC(N)=O)C(=O)N[C@@H](CCCNC(=N)N)C(=O)N[C@H](C(=O)N[C@@H](CCC(N)=O)C(=O)N[C@@H](CCC(N)=O)C(=O)N[C@@H](CCCNC(=N)N)C(=O)N[C@@H](CCCCN)C(=O)N[C@@H](CCC(=O)O)C(=O)N[C@@H](CO)C(=O)N[C@@H](CCCCN)C(=O)N[C@@H](CCCCN)C(=O)N1CCC[C@H]1C(=O)N1CCC[C@H]1C(=O)N[C@@H](C)C(=O)N[C@@H](CCCCN)C(=O)N[C@@H](CC(C)C)C(=O)N[C@@H](CCC(N)=O)C(=O)N1CCC[C@H]1C(=O)N[C@@H](CCCNC(=N)N)C(=O)O)C(C)C` [Compound 54, [Asp^3(O-Heptyl)]-hGhrelin], the pEC50 under setting [1] is 8.29.

Consider “GHRH: GH releasing hormone, expressed as GRF in FIG. 3a [reference compound]”, for which, under “CHO-GHSR62 cells”, the “Ca-releasing activity (in words)” value is listed as “did not exhibit the Ca-releasing activity”. As for `CCCCCCCC(=O)OC[C@H](NC(=O)[C@H](CO)NC(=O)CN)C(=O)N[C@@H](Cc1ccccc1)C(=O)N[C@@H](CC(C)C)C(=O)N[C@@H](CO)C(=O)N1CCC[C@H]1C(N)=O` [Compound 29, Ghrelin (1-7)-amide], the pEC50 under setting [1] is 8.59.

On to `CCCC[C@H](NC(=O)[C@H](CO)NC(=O)CN)C(=O)N[C@@H](Cc1ccccc1)C(=O)N[C@@H](CC(C)C)C(=O)N[C@@H](CO)C(=O)N1CCC[C@H]1C(=O)N[C@@H](CCC(=O)O)C(=O)N[C@@H](Cc1c[nH]cn1)C(=O)N[C@@H](CCC(N)=O)C(=O)N[C@@H](CCCNC(=N)N)C(=O)N[C@H](C(=O)N[C@@H](CCC(N)=O)C(=O)N[C@@H](CCC(N)=O)C(=O)N[C@@H](CCCNC(=N)N)C(=O)N[C@@H](CCCCN)C(=O)N[C@@H](CCC(=O)O)C(=O)N[C@@H](CO)C(=O)N[C@@H](CCCCN)C(=O)N[C@@H](CCCCN)C(=O)N1CCC[C@H]1C(=O)N1CCC[C@H]1C(=O)N[C@@H](C)C(=O)N[C@@H](CCCCN)C(=O)N[C@@H](CC(C)C)C(=O)N[C@@H](CCC(N)=O)C(=O)N1CCC[C@H]1C(=O)N[C@@H](CCCNC(=N)N)C(=O)O)C(C)C` [Compound 73, [Nle^3]-hGhrelin], for which the pEC50 under setting [1] is 5.55. For `CCCCCCCC(=O)OC[C@H](NC(=O)[C@H](CO)NC(=O)CN)C(=O)N[C@@H](Cc1ccccc1)C(=O)N[C@@H](CC(C)C)C(=O)N[C@@H](CO)C(=O)N1CCC[C@H]1C(=O)N[C@@H](CCC(=O)O)C(=O)N[C@@H](Cc1c[nH]cn1)C(=O)O` [Compound 26, Ghrelin (1-9)] (H-GSS(Octanoyl)FLSPEH-OH), under setting [1], the pEC50 was 7.42. Same read-out and setting: then `CCCCCCCC(=O)OC[C@H](NC(=O)[C@H](CCCCN)NC(=O)CN)C(=O)N[C@@H](Cc1ccccc1)C(=O)N[C@@H](CC(C)C)C(=O)N[C@@H](CO)C(=O)N1CCC[C@H]1C(N)=O` [Compound 46, [Lys^2]-Ghrelin (1-7)-amide] (H-GKS(Octanoyl)FLSP-NH2), with 7.62; and `CC(C)C[C@H](NC(=O)[C@H](CCCCN)NC(=O)[C@H](C)NC(=O)[C@@H]1CCCN1C(=O)[C@@H]1CCCN1C(=O)[C@H](CCCCN)NC(=O)[C@H](CCCCN)NC(=O)[C@H](CO)NC(=O)[C@H](CCC(=O)O)NC(=O)[C@H](CCCCN)NC(=O)[C@H](CCCNC(=N)N)NC(=O)[C@H](CCC(N)=O)NC(=O)[C@H](CCC(N)=O)NC(=O)[C@@H](NC(=O)[C@H](CCCNC(=N)N)NC(=O)[C@H](CCC(N)=O)NC(=O)[C@H](Cc1c[nH]cn1)NC(=O)[C@H](CCC(=O)O)NC(=O)[C@@H]1CCCN1C(=O)[C@H](CO)NC(=O)[C@H](CC(C)C)NC(=O)[C@H](Cc1ccccc1)NC(=O)[C@H](COCc1ccccc1)NC(=O)[C@H](CO)NC(=O)CN)C(C)C)C(=O)N[C@@H](CCC(N)=O)C(=O)N1CCC[C@H]1C(=O)N[C@@H](CCCNC(=N)N)C(=O)O` [Compound 67, [Ser^3(Bzl)]-hGhrelin], with 8.12. Regarding `CCCCCCCC(=O)OC[C@H](NC(=O)[C@H](CO)NC(=O)CN)C(=O)N[C@@H](Cc1ccccc1)C(=O)N[C@@H](CC(C)C)C(=O)N[C@@H](CO)C(=O)N1CCC[C@H]1C(=O)N[C@@H](CCC(=O)O)C(=O)O` [Compound 27, Ghrelin (1-8)], the pEC50 under setting [2] was 7.00.
